Legend:
[1] = Permanent waving application test: reductive treatment, then fixing with the ready-for-use fixative; settings: hair reduced with 10% thioglycolic acid solution pH 8.2, then fixed
Experimental: In these examples, the hair was treated reductively in each case in the following manner:
The solution was allowed to act for 15 minutes. The reducing agent acted at a temperature of 50° C.
At the end of the period of action, the excess permanent waving solution was rinsed out with water and the fixing solution was then applied with a sponge. The fixing solution is prepared 2 minutes before use by dissolving component 1 in component 2.
The hair is fixed for 30 minutes at 22° C. and subsequently rinsed with water. The curlers are then removed and the hair is rinsed with lukewarm water. Finally, the hair is styled and then dried.

[2] = cited from earlier work
[3] = Bundle tensile strength of permanently waved and fixed hair
Experimental: The amount of permanent waving liquid was calculated from the ratio 1:1.2 (1 g of hair to 1.2 g of permanent waving liquid). The amount of 1.2 ml to 1 g of hair corresponds to an amount of 50 ml of permanent waving solution per head with an average weight of […] of hair per head. This solution was allowed to act for 15 minutes; the temperature of the reducing agent acting was 50° C. The permanent waving agent, based on thioglycolic acid, was rinsed out well with water (2 to 3 minutes). Subsequently, the hair strands were in each case moistened intensively with the respective ready-for-use fixative. This procedure was repeated three or six times, in that the strands, after each treatment, was suspended for six hours in the water bath.
The tensile strength of the bundles, which are a measure of the preservation of the hair, were determined using individual strands of hair.

Row | SMILES | brightening of the hair (shift in color) [1] | stability in aqueous solution [2] | increase in hair damage on repeated use (bundle tensile strength after three vs six treatments) [3]
1 | OO [Peroxide, hydrogen peroxide] | clearly detectable shift in coloring the direction of red and yellow |  | 
2 | O=C1O[C@H]([C@@H](O)CO)C(=O)C1=O [Dehydroascorbic Acid, dehydroascorbic acid] |  | unstable and decomposes within a few hours | no increase in hair damage

Reference: patent publication US6506373B1, “Agent and method for permanent waving” (Wella Aktiengesellschaft, priority 1998, dated 2003)
